Source: publication PMC9782626, “Copper(II) Complexes of 5–Fluoro–Salicylaldehyde: Synthesis, Characterization, Antioxidant Properties, Interaction with DNA and Serum Albumins” (Molecules, 2022)

Assays:
[1] = ABTS radical cation scavenging assay; type: biochemical; conditions: compound 0.1 mM, 1 min
Excerpt: For the above reasons, the antioxidant ability of 5–F–saloH and Cu(II) complexes 1–5 has been evaluated via their scavenging activity towards DPPH and ABTS radicals, as well as the ability to reduce H2O2, and in comparison with that of well-known antioxidant agents such as nordihydroguaiaretic acid (NDGA), butylated hydroxytoluene (ΒHΤ), 6–hydroxy–2,5,7,8–tetramethylchromane–2–carboxylic acid (trolox) and L–ascorbic acid (these are the most commonly used standard reference antioxidant agents). The DPPH-radical assay was developed in the 1950s and this method has been used to assess the antioxidant capacity of several metal complexes. The DPPH–scavenging ability of compounds has often been related to their ability to prevent ageing, cancer and inflammation. The ability of a compound to scavenge the cationic ABTS radicals (ABTS^+●) has been considered a measure of its total antioxidant activity. Further, hydrogen peroxide has the ability to penetrate biological membranes and, although it is not very reactive itself, it can sometimes be toxic since it may give rise to hydroxyl radicals in cells. For this reason, the removal of H2O2 is very important for the protection of living systems. When a compound is incubated with H2O2 using a peroxidase assay system, the loss of H2O2 can be measured.
S1 Antioxidant activity assay
The antioxidant activity of the compounds was evaluated via their ability to scavenge in vitro free radicals such as DPPH and ABTS and to reduce H 2O2. All the experiments were carried out at least in triplicate and the standard deviation of absorbance was less than 10% of the mean. […]
S1.2 Assay of radical cation ABTS-scavengin g activity
The ABTS assay was performed to determine the activity of the compounds to scavenge the radical cation ABTS. Initially, a water solution of ABTS was prepared (2 mM). ABTS radical cation (ABTS+·) was produced by the reaction of ABTS stock solution with potassium persulfate (0.17 mM) and the mixture was stored in the dark at room temperature for 12-16 h before its use. The ABTS was oxidized incompletely because the stoichiometric reaction ratio of ABTS and potassium persulfate is 1:0.5. The absorbance became maximal and stable only after more than 6 h of reaction although the oxidation of the ABTS started immediately. The radical was stable in this form for more than 2 days when allowed to stand in the dark at room temperature. Afterwards, the ABTS+· solution was diluted in ethanol to an absorbance of 0.70 at 734 nm and 10 μL of diluted compounds or standards (0.1 mM) in DMSO were added. The absorbance was recorded out exactly 1 min after init ial m ix in g [S 1]. The ABTS radical scavenging act ivit y was expressed as the percentage inhibition of the absorbance of the initial ABTS solution (ABTS%). Trolox was used as an appropriate standard. […]

[2] = tested on: EB–DNA conjugate (CT DNA); experiment: EB-displacement studies (fluorescence of EB-DNA conjugate); type: binding, calf; conditions: for Stern–Volmer constant Ksv (EB–DNA) / ΔΙ/Ιο, percentage of EB–DNA fluorescence quenching: [EB] = 20 µM, [DNA] = 26 µM; for ΔΙ/Ιο, percentage of EB–DNA fluorescence quenching: 592 nm; for EB–DNA quenching constant kq: from KSV with τo = 23 ns; for EB–DNA relative fluorescence emission intensity I/Io remaining (% of initial): λemission = 592 nm, final value, r up to 0.36
Excerpt: EB is a well-known indicator of DNA intercalation, since its insertion in-between adjacent DNA base pairs may lead to the development of effective π–π stacking interactions. A solution containing the EB–DNA adduct presents an intense fluorescence emission band at 592 nm when excited at λex = 540 nm. The addition of a compound intercalating to DNA equally or more tightly than EB into this solution may induce changes to the emission band which are monitored, in order to gain insight into its competition with EB for the DNA intercalation site.
The fluorescence emission spectra of pretreated EB–DNA ([EB] = 20 µM, [DNA] = 26 µM) were recorded in the presence of increasing amounts of the complexes (representatively shown for complex 1 in Figure 6A).
The Stern–Volmer (KSV) constants (Table 6) of the complexes were calculated with the Stern–Volmer equation (Equation (S2)) and Stern–Volmer plots. The KSV values are relatively high (of the […] magnitude), indicating a tight binding to CT DNA. […] The EB–DNA quenching constants (kq) of the compounds (Table 6) were calculated with Equation (S3) (considering τo = 23 ns as the EB–DNA fluorescence lifetime); the kq values are higher than 10^10 M^−1 s^−1 [56], proposing the existence of a static quenching mechanism, which may confirm the interaction with the fluorophore and the displacement of EB. […]
S2Binding studies with CT DNA […]
S2.3 EB -displa cement studie s
The competition of the complexes with EB was investigated by fluorescence emission spectroscopy in order to examine whether the compounds can displace EB from its DNA-EB conjugate. The CT DNA-EB complex was formed by pre-treating 20 μM EB and 26 μM CT DNA in buffer (150 mM NaCl and 15 mM trisodium citrate at pH = 7.0).
The possible displacement of EB by the compounds and su bseq uently t he ir intercalating effect was studied by the stepwise addition of a certain amount of the solution of each […]
compound into the solution of the CT DNA-EB adduct. The solut ions were excited at 540 nm and the emission was monitored from 550-700 nm with λmax= 592- 595 nm and the effe ct of the addition of each compound to the CT-DNA EB solution was recorded. The […]
solution or in the presence of CT DNA or EB under the same experimental conditions (λ ex = 540 nm); therefore, the observed quenching of the EB-DNA solution may be attributed to the displacement of EB from its EB -DNA add uct.
The Stern-Volmer constants (KSV, in M -1) were calculated according by the linear Stern-Volmer equation (eq. S2) [S 4] and the respect ive plots Io/I versus [ compound].
Io =1+ k τ [Q] =1+ K [Q] (eq. S2) […]
where Io and I are the emission intensit ies of the EB-DNA solut ion in the absence and the presence of the compounds , respectively, τo= the average lifetime of the emitting system without the quencher and kq = the quenching constant. Taking τo = 23 ns as the fluorescence lifetime of the EB-DNA adduct [S5], the quenching co nstants (k q, in M -1s-1) of the compounds were calculated according to eq. S3 [S 4]:
S3Albumin -binding studies
In order to investigate if the compounds can bind to carrier proteins like serum albumins, we carried out albumin binding study by tryptophan fluorescence quenching experiments using bo vine serum albumin (BSA, 3 μM) in buffer (containing 15 mM trisodium citrate and 150 mM NaCl at pH 7.0). The quenching of the emission intensity of tryptophan residues of BSA at 343 nm was monitored using the co mpounds as que ncher s with increasing concentration [S4]. The fluo rescence emission spectra of the compounds were also recorded with λex = 295 nm. No fluorescence emission band was recorded and thus it was not related to the compounds . The influence of the inner-filter effect [S6] on the measurements wa s evaluated by equation S4.
Where Icorr = corrected intensity, Imeas = the measured intensity, c = the concentration of the quencher, d = the cuvette (1 cm), ε (λexc ) and ε(λe m) = the ε of the quencher at the excitation […]

SMILES: O=Cc1cc(F)ccc1[O-].[Cl-].[Cu+2].c1ccc(Nc2ccccn2)nc1 [Complex 2, [Cu(5–F–salo)(bipyam)Cl]]
- ABTS%, % ABTS–scavenging activity [1]: 48.89 ± 0.38%
- Stern–Volmer constant Ksv (EB–DNA) [2]: 6.23 (±0.11) × 10^4 M^−1
- ΔΙ/Ιο, percentage of EB–DNA fluorescence quenching [2]: 44.5%
- EB–DNA quenching constant kq [2]: 2.71 (±0.05) × 10^12 M^−1 s^−1
- EB–DNA relative fluorescence emission intensity I/Io remaining (% of initial) [2]: 55.5%

SMILES: CO.Cc1ccc2ccc3ccc(C)nc3c2n1.O=Cc1cc(F)ccc1[O-].[Cl-].[Cu+2] [Complex 3, [Cu(5–F–salo)(neoc)Cl].CH3OH]
- ABTS%, % ABTS–scavenging activity [1]: 46.03 ± 0.60%
- Stern–Volmer constant Ksv (EB–DNA) [2]: 3.35 (±0.05) × 10^4 M^−1
- ΔΙ/Ιο, percentage of EB–DNA fluorescence quenching [2]: 49.1%
- EB–DNA quenching constant kq [2]: 1.46 (±0.02) × 10^12 M^−1 s^−1
- EB–DNA relative fluorescence emission intensity I/Io remaining (% of initial) [2]: 50.9%

SMILES: O=Cc1cc(F)ccc1[O-].O=[N+]([O-])[O-].[Cu+2].c1ccc(-c2ccccn2)nc1 [Complex 5, [Cu(5–F–salo)(bipy)(NO3)]]
- ABTS%, % ABTS–scavenging activity [1]: 7.36 ± 0.08%
- Stern–Volmer constant Ksv (EB–DNA) [2]: 3.14 (±0.06) × 10^4 M^−1
- EB–DNA quenching constant kq [2]: 1.36 (±0.03) × 10^12 M^−1 s^−1

SMILES: O=Cc1cc(F)ccc1[O-].O=Cc1cc(F)ccc1[O-].[Cu+2] [Complex 1, [Cu(5–F–salo)2]]
- ABTS%, % ABTS–scavenging activity [1]: 78.89 ± 0.18%
- Stern–Volmer constant Ksv (EB–DNA) [2]: 1.56 (±0.02) × 10^5 M^−1
- ΔΙ/Ιο, percentage of EB–DNA fluorescence quenching [2]: 44.8%
- EB–DNA quenching constant kq [2]: 6.78 (±0.09) × 10^12 M^−1 s^−1
- EB–DNA relative fluorescence emission intensity I/Io remaining (% of initial) [2]: 55.2%

SMILES: O=Cc1cc(F)ccc1[O-].O=[N+]([O-])[O-].[Cu+2].c1cnc2c(c1)ccc1cccnc12 [Complex 4, [Cu(5–F–salo)(phen)(NO3)]]
- ABTS%, % ABTS–scavenging activity [1]: 48.14 ± 0.35%
- Stern–Volmer constant Ksv (EB–DNA) [2]: 6.77 (±0.07) × 10^4 M^−1
- ΔΙ/Ιο, percentage of EB–DNA fluorescence quenching [2]: 48.4%
- EB–DNA quenching constant kq [2]: 2.94 (±0.03) × 10^12 M^−1 s^−1
- EB–DNA relative fluorescence emission intensity I/Io remaining (% of initial) [2]: 51.6%
